Laboratory results reported in patent publication EP1591123A1, “USES OF NARINGENIN, NARINGIN AND SALTS THEREOF AS EXPECTORANTS IN THE TREATMENT OF COUGH, AND COMPOSITIONS THEREOF” (Su, Wei-wei, priority 2003, dated 2004).
Structures can show the parent of a compound that is named as a salt.

Experiments:
mice = experiment: Dispel phlegm test of Naringenin, Phenol Red excretion in trachea (Example 31); type: in vivo; details: for Dispel phlegm ratio: group given drug / blank control group x 100%; for Excretion quantity of Phenol Red / Rectified excretion quantity of Phenol Red: mice, oral, X±S; for Rectified excretion quantity of Phenol Red: excretion quantity / weight of animal
Source text: • 1. Animal: 80 healthy female mice weighing 18.5-22.0g was grouped into 8 groups random after labeled, which was selected from 90 female mice weighing 18.0-22.1g. Every group was 10 mice. Eight groups were set including negative control group, positive control group, high dose group of Naringenin, middle dose group of Naringenin, low dose group of Naringenin, high dose group of sodium salt of Naringenin, middle dose group of sodium salt of Naringenin, low dose group of sodium salt of Naringenin. […] Sample source and preparation • 1) Blank control group: physiological saline, 0.9% NaCl; • 2) Positive control group: 0.2g Tankejing was dissolve into 10 ml 0.9% NaCl and the sample concentration was 20 mg/ml to obtain the solution for positive control. • 3) low dose group of Naringenin: 0.5 mg/ml solution of Naringenin was prepared by weighting out the appropriate amount of 5 mg Naringenin and dissolving it by ultrasonication in 10 ml physiological saline. • 4) middle dose group of Naringenin: 1.5 mg/ml solution of Naringenin was prepared by weighting out the appropriate amount of 15 mg Naringenin and dissolving it by ultrasonication in 10 ml physiological saline. • 5) high dose group of Naringenin: 4.5 mg/ml solution of Naringenin was prepared by weighting out the appropriate amount of 45 mg Naringenin and dissolving it by ultrasonication in 10 ml physiological saline. • 6) low dose group of sodium salt of Naringenin: 0.5 mg/ml solution of sodium salt of Naringenin was prepared by weighting out the appropriate amount of 5 mg sodium salt of Naringenin and dissolving it by ultrasonication in 10 ml physiological saline. • 7) middle dose group of sodium salt of Naringenin: 1.5 mg/ml solution of sodium salt of Naringenin was prepared by weighting out the appropriate amount of 15 mg sodium salt of Naringenin and dissolving it by ultrasonication in 10 ml physiological saline. • 8) high dose group of sodium salt of Naringenin: 4.5 mg/ml solution of sodium salt of Naringenin was prepared by weighting out the appropriate amount of 45 mg sodium salt of Naringenin and dissolving it by ultrasonication in 10 ml physiological saline. • 3. Experimental Method: • 1) preparations of Phenol Red calibration standard: 12.5 ng/ml solution of Phenol Red was prepared by weighting out the appropriate amount of Phenol Red and dissolving it by ultrasonication in 5% NaHCO3. The series solution including 6.25ng/ml, 3.125ng/ml, 1.5625 ng/ml, 0.7813 ng/ml, 0.3906 ng/ml, 0.1953 ng/ml, 0.0977 ng/ml, 0.0488 ng/ml was prepared by diluting, which was detected by ultraviolet spectrometer. The calibration curve was calculated by concentration of Phenol Red as y-axis and OD value as x-axis. And the excretion account of Phenol Red in mice was quantitated by calibration curve. • 2) Animals were fasted for 12 hr before dosing. • 3) Animals were oral administered with labeled number, each animal was administered with 3 min and each group was accomplished in 30 min. • 4) After administered 30 min, every animal was injected 2 ml 5% Phenol Red solution via celiac injection. The time of every animal was 3 min. • 5) Every animal was executed with 3 min interval after celiac injection 30 min, and animal trachea was peeled off with forceps after neck skin sniped, which was riveted on operating table. • 6) plasma and Phenol Red adhered to trachea ektexine was sweeped by 0.9% NaCl solution with an injector. And filter paper was used to blot up the solution. • 7) Scissors cut down the animal trachea including thyroid cartilage and trachea back-end. • 8) The trachea was set in test tube with 1.5 ml 5% NaHCO3. • 9) The experiment of every animal was completed in 3 min. […]

NIH mice = experiment: Antitussive test of Naringin, spraying with concentrated ammonia liquor (Example 28); type: in vivo; details: for R Value: EDT50 of the treatment / EDT50 of the control x 100%; for EDT50: mice, intra-gastrointestinal, ammonia spray 1 hour after dosing
Source text: 1.Animals: As the stock animals, totally 130 NIH mice, male, each weighed 18.2~21.7g within ordinary standard. Weigh and number each mice accurately first, then pick out the 120 healthy ones who weighed in range from 18.5~21.0g. Ranked in weigh, they were divided into 8 groups in random with each 15. Set up reference groups of negative and positive, and sample groups of high-dose, mid-dose, low-dose Naringin and sodium Naringinate.
• 1) Blank control group: physiological saline, 0.9% NaCl; • 2) Positive control group: 30 mg dextromethorphan hydrobromide was weighed into a 20ml volumetric flask, and physiological saline was accurately added to the volume to obtain the solution for positive control at concentration of 5mg/ml° • 3) Group of low-dose sample Naringin: Proper amount of Naringin was weighed into a suitable volumetric flask, and physiological saline was added to the volume to obtain the solution at concentration of 0.5mg/ml. • 4) Group of mid-dose sample Naringin: Proper amount of Naringin was weighed into a suitable volumetric flask, and physiological saline was added to the volume to obtain the solution at concentration of 1.5mg/ml. • 5) Group of high-dose sample Naringin: Proper amount of Naringin was weighed into a suitable volumetric flask, and physiological saline was added to the volume to obtain the solution at concentration of 4.5mg/ml. • 6) Group of low-dose sample sodium Naringinate: Proper amount of sodium Naringin was weighed into a suitable volumetric flask, and physiological saline was added to the volume to obtain the solution at concentration of 0.5mg/ml. • 7) Group of mid-dose sample sodium Naringinate: Proper amount of sodium Naringin was weighed into a suitable volumetric flask, and physiological saline was added to the volume to obtain the solution at concentration of 1.5mg/ml. • 8) Group of high-dose sample sodium Naringinate: Proper amount of sodium Naringin was weighed into a suitable volumetric flask, and physiological saline was added to the volume to obtain the solution at concentration of4.5mg/ml.
One hour after intra-gastrointestinal administering for the mice, spray with concentrated ammonia liquor for certain intervals. Immediately the spraying was over, put away the mice outside and observe the tussive action. Mark down the times for which they coughed within 1 minute. Only when they coughed, which was characteristic of compression of abdomen or chest with their mouths open, and making coughing noise, for more than 3 times within a minute, tussive action could be admitted.
Calculate the median effective dose(EDT50) with sequential trials. Work out the amount of R with the formula below. If R is greater than 130%, it means the drug will be effective on antitussive action. If R is greater than 150%, it means the drug will be remarkably effective on antitussive action. The formula is shown as below: R =(EDT50 of the treatmnet)/(EDT50 of the control)× 100% [formula] EDT50=log-1c/n(n for amount of animals, c for summation of rx, r for amount of animals in each group, x for logarithm of the dose (time for spraying) )

[1] = 0.2 ml/20g of 0.5 mg/ml, listed as sodium naringinate
[2] = 0.2 ml/20g of 1.5 mg/ml, listed as sodium naringinate
[3] = 0.2 ml/20g of 4.5 mg/ml, listed as sodium naringinate

Structure (SMILES)	Dispel phlegm ratio (mice; 5 mg/kg) [%]	Dispel phlegm ratio (mice; 15 mg/kg) [%]	Dispel phlegm ratio (mice; 45 mg/kg) [%]	Excretion quantity of Phenol Red (mice; 5 mg/kg) [ng]	Rectified excretion quantity of Phenol Red (mice; 5 mg/kg) [ng/kg]	Excretion quantity of Phenol Red (mice; 15 mg/kg) [ng]	Rectified excretion quantity of Phenol Red (mice; 15 mg/kg) [ng/kg]	Excretion quantity of Phenol Red (mice; 45 mg/kg) [ng]	Rectified excretion quantity of Phenol Red (mice; 45 mg/kg) [ng/kg]	Effect of relieving cough (NIH mice; 0.2 ml/20g of 0.5 mg/ml)	Effect of relieving cough (NIH mice; 0.2 ml/20g of 1.5 mg/ml)	Effect of relieving cough (NIH mice; 0.2 ml/20g of 4.5 mg/ml)	other results
O=C1CC(c2ccc(O)cc2)Oc2cc(O)cc(O)c21 (stereo not drawn) [Naringenin, 4', 5, 7 -trihydroxyflavanone]	146.13	159.97	219.85	1.2757 ± 0.4020	68.2832 ± 23.6102	1.3523 ± 0.9303	74.7504 ± 57.2020	1.9257 ± 0.6713	102.7325 ± 41.0313				dispel phlegm effect (mice; high dose group compared to positive control group of Tankejing): statistical better than Tankejing; exudates increase of mice trachea (mice; three doses (low, middle, high), versus negative control group): statistical significance stimulate the exudates increase of mice trachea
C[C@@H]1O[C@@H](O[C@H]2[C@H](Oc3cc(O)c4c(c3)O[C@H](c3ccc(O)cc3)CC4=O)O[C@H](CO)[C@@H](O)[C@@H]2O)[C@H](O)[C@H](O)[C@H]1O [Naringin, 4', 5', 7-trihydroxyflavanone-7-rhamnoneglucoside]										effective (If R is greater than 130%, it means the drug will be effective on antitussive action)	remarkably effective (If R is greater than 150%, it means the drug will be remarkably effective on antitussive action)	remarkably effective (If R is greater than 150%, it means the drug will be remarkably effective on antitussive action)	R Value (NIH mice; 0.2 ml/20g of 0.5 mg/ml): 139.21%; R Value (NIH mice; 0.2 ml/20g of 1.5 mg/ml): 151.36%; R Value (NIH mice; 0.2 ml/20g of 4.5 mg/ml): 161.72%; resistance time against cough (NIH mice; compared with dextromethorphan hydrobromide): remarkably longer; EDT50 (NIH mice; 0.2 ml/20g of 0.5 mg/ml): 56.41 s; EDT50 (NIH mice; 0.2 ml/20g of 1.5 mg/ml): 61.33 s; EDT50 (NIH mice; 0.2 ml/20g of 4.5 mg/ml): 65.53 s
O=C1C[C@@H](c2ccc(O)cc2)Oc2cc(O)cc(O)c21 [sodium salt of Naringenin]	148.72	162.38	224.93	1.3029 ± 0.3069	69.4942 ± 16.3724	1.4225 ± 0.7361	75.8773 ± 39.2651	1.9705 ± 0.6898	105.1057 ± 36.7945				
C[C@@H]1O[C@@H](O[C@H]2[C@H](Oc3cc(O)c4c(c3)O[C@H](c3ccc(O)cc3)CC4=O)O[C@H](CO)[C@@H](O)[C@@H]2O)[C@H](O)[C@H](O)[C@H]1O [sodium salt of Naringin]										effective (If R is greater than 130%, it means the drug will be effective on antitussive action)	remarkably effective (If R is greater than 150%, it means the drug will be remarkably effective on antitussive action)	remarkably effective (If R is greater than 150%, it means the drug will be remarkably effective on antitussive action)	R Value (NIH mice; [1]): 142.35%; R Value (NIH mice; [2]): 155.84%; R Value (NIH mice; [3]): 163.94%; EDT50 (NIH mice; [1]): 57.68 s; EDT50 (NIH mice; [2]): 63.15 s; EDT50 (NIH mice; [3]): 66.43 s
